# Test results as given in PMC7934871 (JCI Insight, 2021).
# What was measured:
# pY705-STAT3 = assay: Western blotting of p-STAT3 in HCT116 cells; assay type: cell-based, human; details: HCT116, 1 µM, 48 hours
# Excerpt: Figure 3 PS-acet.-STAT3 peptide inhibits STAT3 activity and downregulates the expression of STAT3 targets. (A) Downregulation of STAT3 activity and its downstream target proteins shown in human HCT116 colorectal cancer cells by Western blotting (data represent 1 of the 3 experiments, n = 3). PO-acet.-STAT3 and PS-STAT3-K685R peptides were used in parallel as controls. (B) STAT3 inhibition regulated the expression of proliferation and apoptotic genes, assessed by real-time quantitative PCR. Data present mean ± SD, n = 3 independent experiments, 1-way ANOVA; ***P < 0.005; **P < 0.01. […] For p53 promoter assay, data represent 3 replicates in 3 independent experiments (n = 9). For cell proliferation assay, data represent 3 independent experiments. SD is shown (n = 3). One-way ANOVA; ***P < 0.005; **P < 0.01.
# Whole cell lysates or tissue homogenates were prepared by using RIPA lysis buffer (50 mM Tris at pH 7.4, 150 mM NaCl, 1 mM EDTA, 0.5% NP-40, 1 mM NaF, 15% glycerol, and 20 mM β-glycerophosphate). A protease inhibitor cocktail (Mini Protease Inhibitor Cocktail; Roche) and a tyrosine phosphatase inhibitor, sodium orthovanadate (Na3VO4, 1 mM), were added freshly to the lysis buffer. Protein amounts were determined by BCA using a Thermo Fisher Scientific kit. Normalized protein amounts were subjected to an SDS-PAGE and transferred onto a nitrocellulose membrane for Western blotting. […] The protein levels for STAT1 (sc-346, E-23), STAT3 (sc-482, C-20), STAT5 (sc-74442, A-9), Crm1 (exportin 1) (sc-5595, H-300), CAS (exportin 2) (sc-271537, H-2), exportin 5 (sc-66885, H-300), and exportin 7 (sc-98639, H-82) were determined using antibodies from Santa Cruz Biotechnology Inc. Anti–exportin 3 (exportin T, 630622, LOS1 05-1525), anti–exportin 4 (3499-1), and anti–exportin 6 (11408-1-AP) were from MilliporeSigma, Epitomics, and Proteintech, respectively. […]
# (§1) Supplemental Figure 4 (related to Figure 1). […] Phosphorylation of STAT3 at Y705 and STAT5 at Y694 was detected by Western blotting after 48 hours treatment of PS-acet.-STAT3 peptide (1 µM) or napabucasin (1 µM) in HCT116 cells. […]
# pY694-STAT5 = assay: Western blotting of p-STAT5 in HCT116 cells; assay type: cell-based, human; details: HCT116, 1 µM, 48 hours
# Method: Whole cell lysates or tissue homogenates were prepared by using RIPA lysis buffer (50 mM Tris at pH 7.4, 150 mM NaCl, 1 mM EDTA, 0.5% NP-40, 1 mM NaF, 15% glycerol, and 20 mM β-glycerophosphate). A protease inhibitor cocktail (Mini Protease Inhibitor Cocktail; Roche) and a tyrosine phosphatase inhibitor, sodium orthovanadate (Na3VO4, 1 mM), were added freshly to the lysis buffer. Protein amounts were determined by BCA using a Thermo Fisher Scientific kit. Normalized protein amounts were subjected to an SDS-PAGE and transferred onto a nitrocellulose membrane for Western blotting. Proteins were visualized with a chemiluminescent detection kit (Pierce, Thermo Fisher Scientific). The protein levels for STAT1 (sc-346, E-23), STAT3 (sc-482, C-20), STAT5 (sc-74442, A-9), Crm1 (exportin 1) (sc-5595, H-300), CAS (exportin 2) (sc-271537, H-2), exportin 5 (sc-66885, H-300), and exportin 7 (sc-98639, H-82) were determined using antibodies from Santa Cruz Biotechnology Inc. Anti–exportin 3 (exportin T, 630622, LOS1 05-1525), anti–exportin 4 (3499-1), and anti–exportin 6 (11408-1-AP) were from MilliporeSigma, Epitomics, and Proteintech, respectively. […]
# as §1
structure (smiles),measurement,setting,value
"CC(=O)c1cc2c(o1)C(=O)c1ccccc1C2=O [napabucasin, reference compound]","phosphorylated STAT3 (p-STAT3, Y705) level",pY705-STAT3,inhibited
same,p-STAT5 (Y694) level,pY694-STAT5,inhibited
